# From patent publication US20040162298A1, “Method of treating HIV infection by preventing interaction of CD4 and gp120” (priority 2002, published 2004)
# Tests used:
# HIV = assay: Anti-HIV activity (assay not specified); format: cell-based; conditions: Human immunodeficiency virus 1, quoted in text
# gp120JRFL [1] = assay: Circular dichroism analysis of gp120 conformational change; parameters: species or system HIV-1
# Experimental: (§1) CD spectra was collected on a Jasco J-720 spectropolarimeter at ambient temperature. Protein concentration in the sample were kept a ˜1 μM, with the exception of sCD4 (1.8 μM) in 20 mM Tris/150 mM NaCl, pH 8.0. Concentration of compound used in the experiments were as indicated.
# (§2) Circular Dichroism (CD) analysis. (Method for FIG. 3 results). The CD spectra of purified gp120JRFL (1.2 μM in 5 mM Tris, pH 8.0/150 mM NaCl) were obtained, in the presence and absence of an inhibitor, on a Jasco J-720 spectropolarimeter at ambient (21-23° C.) temperature. Samples containing varying protein-to-compound mole ratios were placed in a quartz cuvette with a 1-mm pathlength. The molar ellipticity (θ) was monitored between 200 nm and 250 nm as the average of 12-20 scans. Soluble CD4 was used as a negative protein controls. Compound, BMS-066, with no anti-HIV activity (EC50>5 μM) was included as a compound control.
# gp120JRFL [2] = assay: Biacore biosensor binding to immobilized gp120; parameters: species or system HIV-1; conditions: for Biacore signal on gp120-coated surface: compound at 1.5 μM, FIG. 2
# Experimental: GP120JRFL was immobilized on the surface of a CM-chip to a surface density of 12000. Inhibitors prepared in the running buffer was flown over the surface at 30 μl/min. The sensorgram was recorded and normalized against the buffer alone sensorgram, using a Biacore 3000 instrument.
# Biacore biosensor evaluation of gp120-inhibitor binding. (See FIG. 2 for results). The selective binding of entry inhibitors with gp120 was evaluated on a Biacore 3000 biosensor. Purified gp120JRFL was immobilized onto the flow cell surface of a CM-5 chip via EDC/NHS activated covalent modification, according to the protocol described by Biacore Inc. (Uppsala, Swiden). The surface density of immobilized gp120 reached 12000-15000 RU. Soluble CD4 and BSA coated surfaces were also immobilized on separate flow cell surfaces as controls.
# sCD4 = target: T1, sCD4 (Homo sapiens, UniProt P01730); assay: Circular dichroism analysis, sCD4 negative protein control; conditions: sCD4 1.8 μM, compound 3.5 μM, FIG. 3B
# T1 construct: purchased ImmunoDiagnostics, Inc. (Woburn, Mass.)
# Experimental: as §1, §2
# gp120JRFL/CD4 = gp120JRFL/CD4 (Human immunodeficiency virus 1, UniProt Q75760); assay: gp120/CD4 binding assay (ELISA); parameters: species or system HIV-1
# Experimental: The effect of BMS-806 on the gp120/CD4 binding. The gp120JRFL in supernatant was captured onto anti-gp120 antibody (D7324) coated plate. The compound and soluble CD4 were added to the plate simultaneously and CD4 bound to gp120 was detected by ELISA using anti-CD4 antibody OKT4 as a primary antibody and the secondary antibody goat-anti-mouse-peroxidase conjugate. Value are the means±S.E.M which represent multiple separate experiments.
# IC50 values show concentration of compound needed to inhibit 50% of binding of gp120 and CD4.
# The gp120 capturing ELISA methods was derived from Moore et al (42). Briefly, the 96 well assay plates (Immulon 4, Dynatech Technologies Inc. Chantilly, Va.) were coated overnight at 4° C. with 100 μl per well of 10 ug/ml D7324 solution in 100 mM bicarbonate buffer (pH9.6). The antibody-coated plate was washed twice with TBS (20 mM Tris-HCl, 500 mM NaCl, pH7.5). All wells were blocked with 100 μl of 3% BSA in TBS for ½ hour at room temperature. Excess BSA was removed with three TBS washes. Gp120 (purified or in supernatant) were diluted in buffer C (50 mM Tris-HCl, pH 7.5, 100 mM NaCl, 1% BSA) and added to D7324 coated plate(s) at 100μl/well. After incubating at 37° C. for 2 hours, plate(s) was washes three times with Buffer (20 mM Tris-HCl, 500 mM NaCl, 0.05% Tween-20, pH7.5) and the bound gp120 was detected by Anti-gp120-peroxidase conjugate (Cross-reactive, ImmunoDiagnostics, Inc) at a final dilution of 1:1000 in BufferC. Bound antibody-peroxidase conjugates were detected with TMB solution (Pierce) and the optical density was measured at 450 nm. Known concentration of the purified gp120IIIB (ABI) were used to generate a standard curve for gp120 quantitation.
# The assay is similar to the gp120 capturing ELISA method described above with minor modifications.(43). After coating gp120 onto the plates, sCD4 was added to the plate at a final concentration of 200 ng/ml for one hour at room temperature. […] After washing with BufferB, 100 μl of TMB solution was added and the optical density was read at 450 nm.
# [3] = test system: HIV-1 single-round infectious reporter virus; assay: Anti-HIV single cycle infection assay (luciferase reporter virus, HeLa/CD4/CCR5 cells); format: cell-based; conditions: Human immunodeficiency virus 1, HeLa-CD4/CCR5, 72 h, read-out: Anti-HIV single cycle infection EC50
# Experimental: EC50 values show concentration of compound needed to inhibit 50% HIV viral replication.
# Single-round infectious reporter virus was produced by co-transfecting human embryonic Kidney 293 cells with an HIV-1 envelope DNA expression vector and a proviral cDNA containing an envelope deletion mutation and the luciferase reporter gene inserted in place of HIV-1 nef sequences (Chen, 1994). Transfections were performed using LipofectAMINE PLUS reagent as described by the manufacturer (Life Technologies, Gaithersburg, Md.). The resulting reporter viruses are then used to infect HeLa/CD4/CCR5 cells in the following manner. Serial diluted compound was added to HeLa/CD4/CCR5 cells plated in 96 well plates at a cell density of 5×10^4 cells per well in 100 μl Dulbecco's Modified Eagle Medium containing 10% fetal Bovine serum. One hundred microliter of single-round infectious reporter virus in Dulbecco's Modified Eagle Medium was then added to the plated cells and compound at a multiplicity of infection (MOI) of 0.01. Samples were harvested 72 hours after infection and viral infection was monitored by measuring luciferase expression from viral DNA in the infected cells using a luciferase reporter gene assay kit as described by the manufacturer.
# HIV-1 JRFL = assay: Activity against laboratory adapted HIV-1 strain JRFL; format: cell-based; conditions: Human immunodeficiency virus 1, CCR5
# Experimental: (§3) Viruses and cells: (Method for Table 2 results). T-tropic (X4) strains of laboratory adapted HIV-1 were amplified in MT-2 cells and titered using a virus yield assay (17). The laboratory adapted M-tropic (R5) viruses were grown in macrophages or PM1 cells and p24 ELISA assay was used to detect the virus. The TCID50/ml (tissue culture infectious dose) was calculated by the method of Spearman-Karber. Titration of viral stocks and assaying for compound sensitivity were carried out in the cell lines the viruses were originally amplified in. The 50% inhibitory concentration (EC50) was calculated by using the exponential form of the median effect equation where (Fa)=1/[1+(ED50/drug conc.)^m] (17).
# HIV-1 LAV = assay: Activity against laboratory adapted HIV-1 strain LAV; format: cell-based; conditions: Human immunodeficiency virus 1
# Experimental: as §3
# HIV-1 NL4-3 = assay: Activity against laboratory adapted HIV-1 strain NL4-3; format: cell-based; conditions: Human immunodeficiency virus 1, NL43
# Experimental: as §3
# HIV-1 Bru = assay: Activity against laboratory adapted HIV-1 strain Bru; format: cell-based; conditions: Human immunodeficiency virus 1
# Experimental: as §3
# HIV-1 SF-162 = assay: Activity against laboratory adapted HIV-1 strain SF-162; format: cell-based; conditions: Human immunodeficiency virus 1, CCR5
# Experimental: as §3
# HIV-1 Bal = assay: Activity against laboratory adapted HIV-1 strain Bal; format: cell-based; conditions: Human immunodeficiency virus 1, BAL, CCR5, Virus Bal
# Experimental: as §3
# HIV-1 A0-18 = assay: Activity against laboratory adapted HIV-1 strain A0-18; format: cell-based; conditions: Human immunodeficiency virus 1
# Experimental: as §3
# HIV-1 SF-2 = assay: Activity against laboratory adapted HIV-1 strain SF-2; format: cell-based; conditions: Human immunodeficiency virus 1
# Experimental: as §3
# HIV-1 IIIB = assay: Activity against laboratory adapted HIV-1 strain IIIB; format: cell-based; conditions: Human immunodeficiency virus 1, IIIB
# Experimental: as §3
# HIV-1 MN = assay: Activity against laboratory adapted HIV-1 strain MN; format: cell-based
# Experimental: as §3
# HIV-1 RF = assay: Activity against laboratory adapted HIV-1 strain RF; format: cell-based
# Experimental: as §3
# [4] = test system: laboratory strains of B subtype HIV-1; assay: Activity against panel of laboratory strains of B subtype HIV-1; format: cell-based; conditions: Human immunodeficiency virus 1, read-out: EC50 values against 11 of the 13 laboratory strains
# Experimental: as §3
# gp120JRFL [5] = assay: FlashPlate binding of [3H]BMS-853 to gp120, incl. sCD4 competition; parameters: species or system HIV-1; conditions: radioactive inhibitor
# Experimental: Interaction of gp120JRFL (wild type) with ^3H-BMS-853. FlashPlate was coated with increase amount of gp120 and constant amount of ^3H-BMS-853 (16.5 nM) in BufferC was added to each well and the binding assay was allowed to proceed as described in material and methods. Points are averages of duplicate or triplicate determinations.
# Competition binding of ^3H-BMS-853 binding to gp120 by soluble CD4.(sCD4) ^3H-BMS-853 bound to gp120 in the presence of varying amount of sCD4 was determined as described under material and methods. Points shown were obtained in a signal experiment, performed in duplicate. Data were analyzed with Prism computer program. (GraphPad Software, Inc).
# FlashPlate assay. The binding of [^3H]BMS-853 to gp120 was performed on FlashPlate (NEN,SMP200). Coating of gp120 onto FlashPlate was essentially the same as described for gp120 capturing ELISA. After brief washes of gp120 coated FlashPlate with TBS, [^3H]BMS-853 was added to a final concentration of 16.5 nM in BufferC and the plate was kept at room temperature overnight. The plate was washed once with TBS and then counted in TopCount® Microplate Scintillation counter. Varying concentrations of gp120 were used to show the gp120 dose-dependent binding of [^3H]BMS-853 (FIG. 1).
# [6] = test system: V1V2V3 loop-deleted gp120JRFL; assay: Binding of [3H]BMS-853 to V1V2V3 loop-deleted gp120; parameters: species or system HIV-1; conditions: radioactive inhibitor
structure (smiles),measurement,setting,value
Cc1ccc(C)c2c(C(=O)C(=O)N3CCN(C(=O)c4ccccc4)CC3)c[nH]c12 [BMS-033],EC50,HIV,> 5000 nM
same,attenuation of the gp120JRFL CD signal,"gp120JRFL [1]; compound at 2 μM, FIG. 3C",did not cause any attenuation
COc1cnc(-c2cnc(N(C)C)cn2)c2[nH]cc(C(=O)C(=O)N3CCN(C(=O)c4ccccc4)CC3)c12 [BMS-038],Biacore response at various concentrations on gp120-coated surface,gp120JRFL [2]; various concentrations,dose-dependent increase of reflective index
COc1ncc(OC)c2c(C(=O)C(=O)N3CCN(C(=O)c4ccccc4)CC3)c[nH]c12 [BMS-043],EC50,HIV,0.8 nM
same,Biacore signal on gp120-coated surface,gp120JRFL [2],intermediate signals
same,attenuation of the protein CD signal,"gp120JRFL [1]; gp120JRFL 1.2 μM, inhibitor 2.1 μM",40%
same,attenuation of the sCD4 CD signal,sCD4,no attenuation
O=C(C(=O)N1CCN(C(=O)c2ccccc2)CC1)c1c[nH]c2ccccc12 [BMS-216],IC50,gp120JRFL/CD4,1800 ± 300 nM
same,EC50,[3],200 nM
"COc1ccnc2[nH]cc(C(=O)C(=O)N3CCN(C(=O)c4ccccc4)C[C@H]3C)c12 [BMS-806, (R)—N-(benzoyl)-3-methyl-N′-[(4-methoxy-7-azaindol-3-yl)-oxoacetyl]-piperazine]",IC50,gp120JRFL/CD4,280 nM
same,EC50,[3],0.6 nM
same,EC50,HIV-1 JRFL,1.47 nM
same,EC50,HIV-1 LAV,1.98 nM
same,EC50,HIV-1 NL4-3,2.94 nM
same,EC50,HIV-1 Bru,3.26 nM
same,EC50,HIV-1 SF-162,3.46 nM
same,EC50,"HIV-1 Bal; coreceptor CCR5, host Macrophage",8.4 nM
same,EC50,"HIV-1 Bal; coreceptor CCR5, host PM1",15.5 nM
same,EC50,HIV-1 A0-18,23.6 nM
same,EC50,HIV-1 SF-2,26.5 nM
same,EC50,HIV-1 IIIB,39.4 nM
same,EC50,"HIV-1 MN; Human immunodeficiency virus 1, Virus MN, coreceptor CXCR4, host MT-2",844 nM
same,blocking of infection,HIV-1 MN; virus MN,not efficiently blocked
same,EC50,HIV-1 RF; Human immunodeficiency virus 1,6030 nM
same,blocking of infection,HIV-1 RF; virus RF,not efficiently blocked
same,EC50,HIV,1 nM
same,Biacore signal on gp120-coated surface,gp120JRFL [2],intermediate signals
same,EC50,[4],0.85 to 75.8 nM
COc1ccc(OC)c2c(C(=O)C(=O)N3CCN(C(=O)c4ccccc4)CC3)c[nH]c12 [BMS-853],IC50,gp120JRFL/CD4,24 ± 9 nM
same,EC50,[3],0.1 nM
COc1ccc(OC)c2c(C(=O)C(=O)N3CCN(C(=O)c4ccccc4)CC3)c[nH]c12 [[^3H]BMS-853],binding to full-length recombinant gp120JRFL,gp120JRFL [5],bind effectively
same,binding to V1V2V3 loop-deleted gp120JRFL,[6],bound significantly less effective
